Source: paper PMC6479877, “Development of Chemical Tools to Monitor Human Kallikrein 13 (KLK13) Activity” (International Journal of Molecular Sciences, 2019)
One block for each compound: values may come before it. Where a SMILES comes first, the peptide text is derived from it. The star is where a group is joined. Biotin = O=C1N[C@H]2[C@H](CS[C@H]2CCCCC(=O)*)N1; AEA = NCCOCC(=O)O; CH2Cl = ClC*

Assays:
KLK13 [1] = biological target: T1, KLK13 (Homo sapiens, UniProt Q9UKR3); experiment: Inhibitory activity of CMK inhibitors / activity-based probes against KLK13; format: biochemical; set-up: His6 (the forward primers encode HHHHHH followed by DDDDK; the protein was purified on nickel) (N); made in house; conditions: progress curves method, irreversible inhibition, inhibitor 0–50 µM, Substrate 2 10 µM, KLK13 10 nM, 37 °C, pH 7.5, mean ± SD of three replicates
T1 sequence (Q9UKR3 26-277 limits assumed): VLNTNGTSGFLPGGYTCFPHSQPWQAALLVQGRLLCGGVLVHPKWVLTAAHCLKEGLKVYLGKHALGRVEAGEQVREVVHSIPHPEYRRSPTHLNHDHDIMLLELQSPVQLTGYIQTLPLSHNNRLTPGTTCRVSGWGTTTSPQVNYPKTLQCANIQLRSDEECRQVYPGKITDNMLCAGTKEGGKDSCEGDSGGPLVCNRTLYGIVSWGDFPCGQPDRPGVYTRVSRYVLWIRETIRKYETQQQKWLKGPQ
Procedure: The kinetic parameters of inhibition were determined using a progress curve model for irreversible inhibition, as described previously. […] Upon the addition of KLK13 (final concentration 10 nM), the fluorescence of the hydrolyzed substrate was monitored in each sample at excitation and emission wavelengths of 320 and 450 nm, respectively, for 1 h using a microplate reader Gemini EM (Molecular Devices, Berkshire, UK). The reactions were carried out in 200 µL of final volume of 50 mM Tris-Cl (pH 7.5) containing 1 mM EDTA and 0.5 μM heparin at 37 °C. Progress curves were fitted to the resulting data points and then kobs derived from each curve was plotted against inhibitor concentration. Final values of kass were calculated by linear regression and presented as mean ± SD of three independent replicates.

KLK13 [2] = biological target: T1, KLK13; experiment: Detection of KLK13 using biotinylated ABPs (streptavidin-HRP Western blot); format: binding; set-up: His6 (the forward primers encode HHHHHH followed by DDDDK; the protein was purified on nickel) (N); made in house; host or cells: Leishmania tarentolae strain T7-TR (LEXSY), secreted to the medium; conditions: 1 µM probe, TNET buffer, 1 h at 37 °C; twofold dilutions of KLK13 500 to 4 ng
Procedure: Purified active KLK13 (250 ng) was preincubated with increasing concentrations of Bt-PEG-VRFR-CMK or Bt-VRFR-CMK in TNET buffer (0.1 M Tris-HCl, 150 mM NaCl, 5 mM EDTA, 0.05% Tween-20, pH 7.5) for 1 h at 37 °C. Samples were analyzed by SDS-PAGE followed by wet electrotransfer onto a PVDF membrane (GE Healthcare). Membranes were blocked in 5% BSA in TBS buffer (50 mM Tris-HCl, 0.5 M NaCl, pH 7.5) with 0.1% Tween overnight, at 4 °C, followed by incubation with 1:10,000 diluted Streptavidin-HRP (Sigma Aldrich, S2438, Poznan, Poland) for 2 h at RT. After intensive washing with TBS buffer with 0.1% Tween, the signal was developed with Pierce ECL WB substrate (Thermo Fisher Scientific) and visualized manually using AGFA films (Agfa HealthCare, Mortsel, Belgium). To establish the detection limit, decreasing amounts of active KLK13 (ranging from 3.9-500 ng) were preincubated with 1 µM Bt-PEG-VRFR-CMK in TNET buffer for 1 h at 37 °C and visualized by streptavidin-HRP Western blot as described above.

KLK13 [3] = biological target: T1, KLK13; experiment: Kinetic parameters of substrate hydrolysis by KLK13; format: biochemical; set-up: His6 (the forward primers encode HHHHHH followed by DDDDK; the protein was purified on nickel) (N); made in house; host or cells: Leishmania tarentolae strain T7-TR (LEXSY), secreted to the medium; conditions: KLK13 1.25 × 10^−9 M; for Km / kcat: measured in triplicate, ± SD; for kcat/KM (specificity constant): calculated from kcat and KM
Procedure: The specificity constant (kcat/KM) was calculated from kcat and KM. The details of kinetic studies and the method of calculating kinetic parameters have been described previously.

KLK13 [4] = biological target: T1, KLK13; experiment: Detection limit of KLK13 activity with the substrates; format: biochemical; set-up: His6 (the forward primers encode HHHHHH followed by DDDDK; the protein was purified on nickel) (N); made in house; host or cells: Leishmania tarentolae strain T7-TR (LEXSY), secreted to the medium; conditions: constant amount of substrate, decreasing KLK13; 50 mM Tris-Cl pH 7.5, 1 mM EDTA, 0.5 μM heparin, 37 °C
Procedure: The detection limit was established by analyzing the correlation between an increase in absorbance/fluorescence and enzyme concentration at constant quantities of each, ABZ-Val-Arg-Phe-Arg-ANB-NH2 (Substrate 1) and ABZ-[…]3-NO2)-NH2 (Substrate 2).
Int. J. Mol. Sci. 2019, 20, x FOR PEER REVIEW 2 of 2
Figure S2. Detection limit and pH optimum of KLK13 as determined for the optimized substrates.
Substrates 1 (A) and 2 (B) were titrated with decreasing amounts of KLK13 in 50 mM Tris-Cl (pH 7.5) buffer containing 1 mM EDTA and 0.5 μM heparin at 37 °C. ( C) pH dependence of KLK13. Processing […]
of ABZ-[…]3-NO 2)-NH2 by KLK13 was monitored at pH range of 3 to 10 (citric acid/sodium citrate, sodium acetate/acetic acid, MES, MOPS, HEPES and TRIS buffers).
Reaction progress was monitored by fluorescence detection at the excitation and emission wavelength […]
(1 picture or pasted object on this page, not shown here)

[5] = test system: KLK1, KLK2, KLK3, KLK4, KLK6, KLK8, KLK12; experiment: Selectivity assessment of substrate 2: other kallikreins; format: biochemical; conditions: substrate 6.15 μM, enzymes 1.25 nM, 37 °C, 50 mM Tris-Cl pH 7.5, 1 mM EDTA, 0.5 μM heparin; fluorescence 450 nm
Procedure: (§1) Substrate 2 (6.15 μM) was incubated with tested kallikreins (KLK1, KLK2, KLK3, KLK4, KLK6, KLK8, KLK12, KLK13) and cathepsins (CatX, CatL, CatS, CatD, CatH, CatB), all at a concentration of 1.25 nM, at 37 °C in 50 mM Tris-Cl (pH 7.5) buffer containing 1 mM EDTA and 0.5 μM heparin. Proteolytic activity was assayed as an increase in fluorescence at 450 nm.

[6] = test system: cathepsins (CatX, CatL, CatS, CatD, CatH, CatB); experiment: Selectivity assessment of substrate 2: cathepsins; format: biochemical; conditions: substrate 6.15 μM, enzymes 1.25 nM, 37 °C, 50 mM Tris-Cl pH 7.5, 1 mM EDTA, 0.5 μM heparin; fluorescence 450 nm
Procedure: as §1

KLK13 [7] = biological target: T1, KLK13; experiment: Site of hydrolysis by RP-HPLC with fluorescence detection and MS; format: biochemical; set-up: His6 (the forward primers encode HHHHHH followed by DDDDK; the protein was purified on nickel) (N); made in house; host or cells: Leishmania tarentolae strain T7-TR (LEXSY), secreted to the medium; conditions: RP-HPLC with fluorescence detection coupled to MS
Procedure: The site of hydrolysis was determined after each step of deconvolution of primed site library and for both final substrates (1 and 2) by RP-HPLC monitored by fluorescence detection and MS.

KLK13 [8] = biological target: T1, KLK13; experiment: pH dependence of KLK13 activity; format: biochemical; set-up: His6 (the forward primers encode HHHHHH followed by DDDDK; the protein was purified on nickel) (N); made in house; host or cells: Leishmania tarentolae strain T7-TR (LEXSY), secreted to the medium; conditions: KLK13 1.25 nM, substrate 6.15 µM, 37 °C, buffers pH 3 to 10
Procedure: The pH dependence of KLK13 (1.25 nM) was established at 37 °C using substrate 2 (6.15 µM) in following buffers: citric acid/sodium citrate (pH 3), sodium acetate/acetic acid (pH 4 and 5), MES (pH 6), MOPS (pH 7), HEPES (pH 8) and TRIS (pH 9 and 10).

kass (KLK13 [1]): 204 ± 23 M⁻¹ s⁻¹
Detection limit of purified KLK13 in Western blot (KLK13 [2]): ~15 ng
Compound: CC(C)[C@H](NC(=O)COCCNC(=O)CCCC[C@@H]1SC[C@@H]2NC(=O)N[C@@H]21)C(=O)N[C@@H](CCCNC(=N)N)C(=O)N[C@@H](Cc1ccccc1)C(=O)N[C@@H](CCCNC(=N)N)C(=O)CCl [Bt-PEG-VRFR-CMK, Bt-PEG-Val-Arg-Phe-Arg-CMK] ({Biotin-AEA}-VRFR-CH2Cl)

kass (KLK13 [1]): 49 ± 2 M⁻¹ s⁻¹
Compound: CC(C)[C@H](NC(=O)CCCC[C@@H]1SC[C@@H]2NC(=O)N[C@@H]21)C(=O)N[C@@H](CCCNC(=N)N)C(=O)N[C@@H](Cc1ccccc1)C(=O)N[C@@H](CCCNC(=N)N)C(=O)CCl [Bt-VRFR-CMK, Bt-Val-Arg-Phe-Arg-CMK] (Biotin-VRFR-CH2Cl)

Compound: ABZ-VRFRSTE-Tyr(3-NO2)-NH2 [optimized substrate differing only at the P3′ position (Glu)]
Km (KLK13 [3]): 24.7 ± 5.8 µM
kcat (KLK13 [3]): 91.11 ± 11.61 s⁻¹
kcat/KM (specificity constant) (KLK13 [3]): (3.69 ± 0.40) ×10^6 M^−1·s^−1

Compound: ABZ-VRFRSTG-Tyr(3-NO2)-NH2 [optimized substrate differing only at the P3′ position (Gly)]
Km (KLK13 [3]): 19.7 ± 3 µM
kcat (KLK13 [3]): 169.40 ± 12.40 s⁻¹
kcat/KM (specificity constant) (KLK13 [3]): (8.62 ± 0.37) ×10^6 M^−1·s^−1

Compound: ABZ-VRFRSTS-Tyr(3-NO2)-NH2 [optimized substrate differing only at the P3′ position (Ser)]
Km (KLK13 [3]): 14.7 ± 2.2 µM
kcat (KLK13 [3]): 113.12 ± 6.87 s⁻¹
kcat/KM (specificity constant) (KLK13 [3]): (7.71 ± 0.67) ×10^6 M^−1·s^−1

Compound: ABZ-Val-Arg-Phe-Arg-ANB-NH2 [Substrate 1, kinetically preferred non-primed fluorogenic/chromogenic KLK13 substrate]
Km (KLK13 [3]): 17.8 ± 2.8 µM
kcat (KLK13 [3]): 94.36 ± 3.05 s⁻¹
kcat/KM (specificity constant) (KLK13 [3]): over 5 × 10^6 M^−1·s^−1
kcat/KM (specificity constant) (KLK13 [3]; listed as ABZ-VRFR-ANB-NH2 (1)): (5.31 ± 0.34) ×10^6 M^−1·s^−1
KLK13 concentration at which fluorescence increase was still detectable (KLK13 [4]): 1.56 nM

Compound: ABZ-Val-Arg-Phe-Arg-Ser-Thr-Gln-Tyr(3-NO2)-NH2 [Substrate 2, internally quenched fluorogenic KLK13 substrate spanning P4-P3′]
Cleavage by other kallikreins relative to the activity of KLK13 [5]: ≤ 20%
Hydrolysis by cathepsins [6]: None of tested cathepsins hydrolyzed
Km (KLK13 [3]): 10 ± 1.9 µM
kcat (KLK13 [3]): 96.43 ± 7.15 s⁻¹
kcat/KM (specificity constant) (KLK13 [3]; listed as ABZ-VRFRSTQ-Tyr(3-NO2)-NH2 (2)): (9.64 ± 1.08) ×10^6 M^−1·s^−1
kcat/KM (specificity constant) (KLK13 [3]; listed as ABZ-Val-Arg-Phe-Arg-Ser-Thr-Gln-Tyr(3-NO2)-NH2): ≈ 10^7 M^−1·s^−1
kcat/KM (specificity constant) (KLK13 [3]; listed as substrate 2): ~1e+07 M⁻¹ s⁻¹
KLK13 concentration at which fluorescence increase was still detectable (KLK13 [4]): 0.0488 nM
Site of hydrolysis by KLK13 (KLK13 [7]): exclusively hydrolyzed at the Arg-Ser peptide bond
Optimal pH for processing of the substrate by KLK13 (KLK13 [8]): 9
